# From the supplement of paper PMC11208160
# Test: recombinant barcode read abundance after kanamycin selection (control-corrected) (log10(CPM+1)); higher = more efficient recombination; sequences stand for … in AGTGCAGAGAAAATCGGCCAGTTTTCTCTGCCTGCAGTCCGCATGCCGT…AGATTTATGCAGCGGACTGCCTTTCTCCCAAAGTGATAAACCGGACAGTATCATGGACCGGTTTTCCCGGTAATCCGTATTTGCAAGGTTGGTTTCACT; site = the 11-nt target
# In short: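 In a pooled screen in E. coli, targets were paired with target-binding loops of the IS621 bridge RNA. Each oligo carried a promoter, a target, a barcode and the first 104 bridge RNA bases driven by J23119, and was Gibson-cloned into a vector holding the remaining 73 bp and a T7-inducible recombinase before co-electroporation with a donor plasmid. Duplicate platings went onto chloramphenicol/ampicillin LB agar as the control or onto chloramphenicol/ampicillin/kanamycin with 0.1 mM IPTG. Recombination efficiency is the averaged, control-corrected count per million of barcodes at recombinant junctions, given as log10(CPM+1).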
# 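Also: IS621 recombinase and bridge RNA in Escherichia coli cells.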
row,Sequence,recombinant barcode read abundance (log10)
1,TCACGTCCTTGGGTTCTAACCTGTTGCAT (site TCACGTCCTAA),0.0411
2,TCACGTCCTTGGGTTCTAACCTGTTGCAT (site TCACGTCCTAC),0.187
3,TCACGTCCTTGGGTTCTAACCTGTTGCAT (site TCACGTCCTAG),0.745
4,TCACGTCCTTGGGTTCTAACCTGTTGCAT (site TCACGTCCTAT),0.576
5,TCACGTCCTTGGGTTCTAACCTGTTGCCT (site TCACGTCCTAA),0.403
6,TCACGTCCTTGGGTTCTAACCTGTTGCCT (site TCACGTCCTAC),0.0778
7,TCACGTCCTTGGGTTCTAACCTGTTGCCT (site TCACGTCCTAG),0.456
8,TCACGTCCTTGGGTTCTAACCTGTTGCCT (site TCACGTCCTAT),0.144
9,TCACTAGCTTGGGTTCTAACCTGTTGCCT (site TCACTAGCTAG),0.0596
10,TCACTAGCTTGGGTTCTAACCTGTTGCCT (site TTACGAGCTAG),0
11,TCAGACCCTTGGGTTCTAACCTGTTGCCT (site TAAGACCCTAG),0.417
12,TCAGACCCTTGGGTTCTAACCTGTTGCCT (site TCAGACCCTAG),2.31
13,TCAGAGGCTTGGGTTCTAACCTGTTGCTG (site TCAGAGGCTCA),0.623
14,TCAGAGGCTTGGGTTCTAACCTGTTGCTG (site TCCGAGGCTCA),0.118
15,TCAGAGGCTTGGGTTCTAACCTGTTGCTG (site TCGGAGGCTCA),0.0529
16,TCAGAGGCTTGGGTTCTAACCTGTTGCTG (site TCTGAGGCTCA),0.156
17,TCAGATTCTTGGGTTCTAACCTGTTGCCT (site TCAAATTCTAG),0.0231
18,TCAGATTCTTGGGTTCTAACCTGTTGCCT (site TCACATTCTAG),0.0298
19,TCAGATTCTTGGGTTCTAACCTGTTGCCT (site TCAGATTCTAG),0.78
20,TCAGATTCTTGGGTTCTAACCTGTTGCCT (site TCATATTCTAG),0.114
21,TCAGGAGCTTGGGTTCTAACCTGTTGCGG (site TCAGGAGCTCC),2.07
22,TCAGGAGCTTGGGTTCTAACCTGTTGCGG (site TCAGGAGCTCT),1.85

row,Sequence,recombinant barcode read abundance (log10)
1,TCAGGCCCTTGGGTTCTAACCTGTTGCCT (site TAAGGCCCTAA),0.0837
2,TCAGGCCCTTGGGTTCTAACCTGTTGCCT (site TCAGGCCCTAG),0.702
3,TCATGACCTTGGGTTCTAACCTGTTGCAT (site CTTAACACTCG),0.159
4,TCATGACCTTGGGTTCTAACCTGTTGCAT (site TCATGACCTAT),1.29
5,TCCAACACTTGGGTTCTAACCTGTTGCCG (site TCCAACACTCG),0.574
6,TCCAACACTTGGGTTCTAACCTGTTGCCG (site TCCAATACTCG),0.24
7,TCCAACCCTTGGGTTCTAACCTGTTGCCA (site GCCAACCCTTA),0.0929
8,TCCAACCCTTGGGTTCTAACCTGTTGCCA (site TCCAACCCTTG),0.715
9,TCCAAGGCTTGGGTTCTAACCTGTTGCCT (site TCAAAGGCTAG),0.0841
10,TCCAAGGCTTGGGTTCTAACCTGTTGCCT (site TCCAAGGCTAG),0.107
11,TCCAAGGCTTGGGTTCTAACCTGTTGCCT (site TCGAAGGCTAG),0.147
12,TCCAAGGCTTGGGTTCTAACCTGTTGCCT (site TCTAAGGCTAG),1.48
13,TCCACAACTTGGGTTCTAACCTGTTGCCT (site TCCACAACTAG),0.273
14,TCCACAACTTGGGTTCTAACCTGTTGCCT (site TCCACACCTAG),0.122
15,TCCACAACTTGGGTTCTAACCTGTTGCCT (site TCCACAGCTAG),0.283
16,TCCACAACTTGGGTTCTAACCTGTTGCCT (site TCCACATCTAG),0.193
17,TCCACATCTTGGGTTCTAACCTGTTGCCT (site TCCACAACTAG),0.0262
18,TCCACATCTTGGGTTCTAACCTGTTGCCT (site TCCACACCTAG),0.793
19,TCCACATCTTGGGTTCTAACCTGTTGCCT (site TCCACAGCTAG),0.00992
20,TCCACATCTTGGGTTCTAACCTGTTGCCT (site TCCACATCTAG),0.477
21,TCCATCCCTTGGGTTCTAACCTGTTGCTA (site TCCAGTCCTTA),0.0637
22,TCCATCCCTTGGGTTCTAACCTGTTGCTA (site TCCATCCCTTA),0.605

row,Sequence,recombinant barcode read abundance (log10)
1,TCCCAGTCTTGGGTTCTAACCTGTTGCAT (site TCCCAGTCTAA),0.542
2,TCCCAGTCTTGGGTTCTAACCTGTTGCAT (site TCCCAGTCTAC),0.104
3,TCCCAGTCTTGGGTTCTAACCTGTTGCAT (site TCCCAGTCTAG),0.242
4,TCCCAGTCTTGGGTTCTAACCTGTTGCAT (site TCCCAGTCTAT),1.88
5,TCCCAGTCTTGGGTTCTAACCTGTTGCCT (site TCCCAGTCTAA),0.0986
6,TCCCAGTCTTGGGTTCTAACCTGTTGCCT (site TCCCAGTCTAC),0.889
7,TCCCAGTCTTGGGTTCTAACCTGTTGCCT (site TCCCAGTCTAG),1.82
8,TCCCAGTCTTGGGTTCTAACCTGTTGCCT (site TCCCAGTCTAT),0.594
9,TCCCAGTCTTGGGTTCTAACCTGTTGCGT (site TCCCAGTCTAA),0.433
10,TCCCAGTCTTGGGTTCTAACCTGTTGCGT (site TCCCAGTCTAC),2.59
11,TCCCAGTCTTGGGTTCTAACCTGTTGCGT (site TCCCAGTCTAG),0.375
12,TCCCAGTCTTGGGTTCTAACCTGTTGCGT (site TCCCAGTCTAT),1.6
13,TCCCAGTCTTGGGTTCTAACCTGTTGCTT (site TCCCAGTCTAA),0.681
14,TCCCAGTCTTGGGTTCTAACCTGTTGCTT (site TCCCAGTCTAC),0.0373
15,TCCCAGTCTTGGGTTCTAACCTGTTGCTT (site TCCCAGTCTAG),0.684
16,TCCCAGTCTTGGGTTCTAACCTGTTGCTT (site TCCCAGTCTAT),1.19
17,TCCCATACTTGGGTTCTAACCTGTTGCCT (site TCCCATACTAG),0.493
18,TCCCATACTTGGGTTCTAACCTGTTGCCT (site TCCCATCCTAG),0.33
19,TCCCATACTTGGGTTCTAACCTGTTGCCT (site TCCCATGCTAG),0.109
20,TCCCATACTTGGGTTCTAACCTGTTGCCT (site TCCCATTCTAG),0.0766
21,TCCCCGGCTTGGGTTCTAACCTGTTGCCT (site TACCCGCCTAG),0.0487
22,TCCCCGGCTTGGGTTCTAACCTGTTGCCT (site TCCCCGGCTAG),0.285
